Article PMC11253624, “Unsaturated fatty acid perturbation combats emerging triazole antifungal resistance in the human fungal pathogen Aspergillus fumigatus” (mBio, 2024)
Converted amounts (≈) assume the structure as drawn. Read-outs that look alike come from different tables or passages of the source.

Key:
Aspergillus fumigatus [1] = test: FIC checkerboard synergy assay, A. fumigatus; type: cell-based; conditions: for MIC: Aspergillus fumigatus
Aspergillus fumigatus [2] = test: Colony recovery after CLSI MIC testing (fungicidal test); type: cell-based; conditions: at MIC (2.453 μg/ml) and 2X MIC (4.906 μg/ml)
Method: Perhaps consistent with these lipid profiling data, transmission electron microscopy images of MBX-7591-treated cells reveal a loss of cellular membrane integrity, a large increase in the electron translucent cell wall, and a significant increase in electron density in the cytoplasm (Fig. S1B). These TEM images are consistent with cell death upon MBX-7591 treatment.
115 Supplementary Figure 1. MBX-7591 pre-treatment induces cell death.
116 A) Biofilms grown for 12 hours with MBX-7591 pre-treatment (PT) are more susceptible to
117 subsequent 6-hour voriconazole (VCZ) treatment. MBX-7591 PT + VCZ biofilms show higher
118 sytox staining and nuclear collapse indicative of increased cell membrane permeability and cell
119 death. B) TEM image of cross section of Aspergillus fumigatus hyphae from 24-hour biofilms
120 grown in vehicle control or 0.588 μg/ml MBX-7591. MBX-7591 induces changes in the cell wall,
121 increased vacuolization and increased cytosolic density (black arrows). C) MBX-7591 reduces
CLSI assay done as described in methods and incubated for 48 hours at
124 37°C, 5%CO2. Subsequently 100 µL of untreated control, ½ MIC, MIC and 2X MIC wells were
125 plated onto GMM and incubated at 37°C, 5%CO2 for 48h. Representative images of fungal
126 growth of 2 independent biological replicates shown.

Blastomyces dematitidis = test: microbe, parasite or virus in culture; type: cell-based
A. fumigatus CEA10 = test: Fatty acid profile of 24-hour biofilms by GC-MS; type: cell-based, Aspergillus fumigatus; conditions: CEA10 24-hour biofilm; MBX-7591 0.58 µg/mL, voriconazole 0.0625 µg/mL
Rhizopus delemar = test: CLSI-based microbroth dilution MIC, spectrum of activity; type: cell-based; conditions: strain 99-880; for MIC: Rhizopus delemar
Cryptococcus neoformans = test: CLSI-based microbroth dilution MIC for yeast; type: cell-based; conditions: for MIC: Cryptococcus neoformans
[3] = Aqueous solubility (nephelometric); type: physicochemical; conditions: kinetic from dmso stock
Method: The maximum aqueous solubility of each compound was determined using a nephelometric method as described ([51]). Each assay comprised three technical replicates, and each assay was repeated at least once. The reported solubility is the average of at least five technical replicates. […]

CYP3A4 = target: T1, CYP3A4 (Homo sapiens, UniProt P08684); test: CYP450 inhibition; type: in vitro ADME; conditions: Human Cytochrome P450 kit (BD Gentest), read-out: Human CYP3A4 inhibition (%INH at 10 µM)
T1 construct: purchased BD Gentest Corp, Woburn, MA, USA
T1 sequence (P08684 whole entry): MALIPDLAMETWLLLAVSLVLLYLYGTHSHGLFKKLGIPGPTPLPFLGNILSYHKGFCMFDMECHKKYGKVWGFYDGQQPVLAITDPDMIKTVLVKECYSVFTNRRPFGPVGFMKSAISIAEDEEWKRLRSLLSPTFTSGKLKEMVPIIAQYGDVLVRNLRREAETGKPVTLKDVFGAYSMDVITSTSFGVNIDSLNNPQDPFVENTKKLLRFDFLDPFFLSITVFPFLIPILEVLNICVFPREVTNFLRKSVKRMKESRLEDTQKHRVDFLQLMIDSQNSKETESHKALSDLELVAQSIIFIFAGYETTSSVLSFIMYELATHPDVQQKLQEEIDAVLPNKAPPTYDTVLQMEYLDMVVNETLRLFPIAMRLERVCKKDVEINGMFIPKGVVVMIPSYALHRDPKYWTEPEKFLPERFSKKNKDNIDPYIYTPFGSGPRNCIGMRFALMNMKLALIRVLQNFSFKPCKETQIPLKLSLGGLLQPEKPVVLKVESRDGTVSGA
Method: Inhibition of the CYP450 enzyme CYP3A4 by each compound at a final concentration of 10 µM was measured using a commercially available Human Cytochrome P450 kit (BD Gentest Corp, Woburn, MA, USA) according to the manufacturer’s instructions.

Histoplasma capsulatum = test: microbe, parasite or virus in culture; type: cell-based
Apophysomyces spp. = test: CLSI-based microbroth dilution MIC, spectrum of activity; type: cell-based
[4] = tested on: A. fumigatus CEA10 reference strain; test: MIC of HTS hits vs A. fumigatus CEA10, CLSI microbroth dilution, with or without 32 µg/mL fluconazole; conditions: for MIC: Aspergillus fumigatus
[5] = Liver microsome stability; type: in vitro ADME; conditions: mouse; murine liver microsomes, NADPH; read-out: MLMS (t1/2)
Method: To examine the potential for first-pass metabolism of analogs in the liver, the stability of analogs in the presence of liver microsome preparations (Eurofins Discovery for human, dog, and rat; Xenotech for mouse) was measured using the method of Kuhnz and […] ([52]). The amount of parent compound remaining after incubation with microsomes in the presence of NADPH over a 30-min time range was measured using a reverse-phase liquid chromatography/mass spectroscopy method that was customized for each compound. Half-lives were calculated using linear regression analysis of several time points.

Aspergillus niger = test: CLSI-based microbroth dilution MIC, spectrum of activity; type: cell-based
Candida auris = test: CLSI-based microbroth dilution MIC for yeast; type: cell-based; conditions: Candidozyma auris
Mucor spp. = test: CLSI-based microbroth dilution MIC, spectrum of activity; type: cell-based; conditions: for MIC: Mucor

For `O=C(c1ccsc1)N1CCC(Cc2ccc(COc3ccncc3)cc2)CC1` [MBX-7591], the “average FIC” value (Aspergillus fumigatus [1]) was 0.5, the MIC (Aspergillus fumigatus [1]; strain 08-19-02-61, alone) was 2.45 µg/mL and the MIC (Aspergillus fumigatus [1]; strain 08-31-08-91, alone) was 4.91 µg/mL. The MIC (Aspergillus fumigatus [1]; strain F11628, alone) was 2.45 µg/mL, the MIC (Aspergillus fumigatus [1]; strain F15390 (caf8), alone) was 2.45 µg/mL and the “FIC value” (Aspergillus fumigatus [1]; CEA10, MBX-7591 + 7.81 μg/ml OA) was 4. For the same molecule, the “FIC value” (Aspergillus fumigatus [1]; CEA10, MBX-7591 + 15.63 μg/ml OA) was 8, the “FIC value” (Aspergillus fumigatus [1]; CEA10, MBX-7591 + 31.25 μg/ml OA) was greater than 8 and the FIC value (Aspergillus fumigatus [1]; strain 08-19-02-61, MBX-7591 + VCZ) was 0.5. For the same molecule, the FIC value (Aspergillus fumigatus [1]; strain 08-31-08-91, MBX-7591 + VCZ) was 0.5, the FIC score (Aspergillus fumigatus [1]; strain CEA10, MBX-7591 + FLC) was 0.312 and the FIC value (Aspergillus fumigatus [1]; strain CEA10, MBX-7591 + VCZ) was 0.375–0.5. For the same molecule, the FIC value (Aspergillus fumigatus [1]; strain F11628, MBX-7591 + VCZ) was 0.3125–0.375, the FIC value (Aspergillus fumigatus [1]; strain F15390 (caf8), MBX-7591 + VCZ) was 0.5 and the “colony formation after 48 hours of treatment of conidia” value (Aspergillus fumigatus [2]) was “No colony-forming units were observed at or 2× the MIC”. The MIC (Blastomyces dematitidis; strain DI19-271) was 0.5 µg/mL (≈ 1.27 µM), the MIC (Blastomyces dematitidis; strain DI19-277) was 8 µg/mL (≈ 20.4 µM) and the MIC (Blastomyces dematitidis; strain DI19-282) was 4 µg/mL (≈ 10.2 µM). The “C14:0 relative percentage of fatty acids” value (A. fumigatus CEA10) was 0.19 ± 0.057, the “C15:0 relative percentage of fatty acids” value (A. fumigatus CEA10) was 0.59 ± 0.034 and the “C16:0 (palmitic acid) relative percentage of fatty acids” value (A. fumigatus CEA10) was 23.30 ± 0.48. For the same molecule, the “C16:1n7 relative percentage of fatty acids” value (A. fumigatus CEA10) was 0.68 ± 0.040, the “C17a relative percentage of fatty acids” value (A. fumigatus CEA10) was 0.15 ± 0.025 and the “C18:0 (stearic acid) relative percentage of fatty acids” value (A. fumigatus CEA10) was 4.44 ± 0.95. For the same molecule, the “C18:1n7 relative percentage of fatty acids” value (A. fumigatus CEA10) was 1.30 ± 0.18, the “C18:1n9 (oleic acid) relative percentage of fatty acids” value (A. fumigatus CEA10) was 20.48 ± 1.30 and the “C18:2n6 relative percentage of fatty acids” value (A. fumigatus CEA10) was 48.87 ± 0.91. The MIC (Rhizopus delemar) was 0.31 µg/mL (≈ 0.79 µM), the MIC (Rhizopus delemar; read-out: MIC UTHSC) was roughly 0.25 µg/mL (≈ 0.637 µM) and the “MIC UTHSC” value (Rhizopus delemar) was 0.25 µg/mL (≈ 0.637 µM). For the same molecule, the MIC (Cryptococcus neoformans; strain H99, 0% CO2, read-out: MIC 0% CO2) was greater than 39.2 µg/mL, the MIC (Cryptococcus neoformans; strain H99, 5% CO2, Table S4, read-out: MIC 5% CO2) was 2.45 µg/mL (≈ 6.24 µM) and the MIC (Cryptococcus neoformans; strain H99, MIC obtained under 5% CO2, Table S3) was 2.45 µg/mL (≈ 6.24 µM). For the same molecule, the MIC (Cryptococcus neoformans; strain H99, read-out: MIC UTHSC) was greater than 32 µg/mL, the “MIC 0% CO2” value (Cryptococcus neoformans; strain A7-35-23, 0% CO2) was greater than 39.25 µg/mL and the “MIC 5% CO2” value (Cryptococcus neoformans; strain A7-35-23, 5% CO2) was 2.45 µg/mL (≈ 6.24 µM). The “MIC 0% CO2” value (Cryptococcus neoformans; strain C23, 0% CO2) was greater than 39.25 µg/mL, the “MIC 5% CO2” value (Cryptococcus neoformans; strain C23, 5% CO2) was 2.45 µg/mL (≈ 6.24 µM) and the “MIC 0% CO2” value (Cryptococcus neoformans; strain JEC21, 0% CO2) was greater than 39.25 µg/mL. For the same molecule, the “MIC 5% CO2” value (Cryptococcus neoformans; strain JEC21, 5% CO2) was 2.45 µg/mL (≈ 6.24 µM), the solubility [3] was 50 µM (≈ 19.6 µg/mL) and the inhibition at 10 µM (CYP3A4) was 89%. It also gave an MIC (Histoplasma capsulatum; read-out: MIC UTHSC, strain DI14-269) of 4 µg/mL (≈ 10.2 µM), an MIC (Histoplasma capsulatum; read-out: MIC UTHSC, strain DI14-284) of 1 µg/mL (≈ 2.55 µM) and an MIC (Histoplasma capsulatum; read-out: MIC UTHSC, strain DI17-143) of 0.5 µg/mL (≈ 1.27 µM). For the same molecule, the MIC (Apophysomyces spp.; strain Apo1) was 0.5 µg/mL (≈ 1.27 µM), the MIC (Apophysomyces spp.; strain Apo2) was 16 µg/mL (≈ 40.8 µM) and the MIC (Apophysomyces spp.; strain Apo3) was 4 µg/mL (≈ 10.2 µM). It also gave an MIC ([4]; read-out: MBX-7591 MIC vs A. fumigatus (+) FLC) of 0.4 µM, an MIC ([4]; read-out: MBX-7591 MIC vs A. fumigatus (−) FLC) of 1.2 µM and an MIC ([4]; read-out: MIC (+Flu)) of 5 µM. The MIC ([4]; read-out: MIC (-Fluc)) was 20 µM, the “Fold MIC” value ([4]; MIC-FLC/MIC+FLC, Table S2) was 4 and the “Ratio (MIC −FLC / MIC +FLC)” value ([4]; Table 1) was 3. The half-life [5] was 40 min, the MIC (Aspergillus niger; Aspergillus niger, strain AN1) was greater than 32 µg/mL and the “MIC UTHSC” value (Aspergillus niger; strain AN2) was greater than 32 µg/mL. For the same molecule, the MIC (Candida auris; Clade I, Clade III) was greater than 39.2 µg/mL, the MIC (Candida auris; NIH: DI17-47, DI17-48, DI17-46, read-out: MIC UTHSC) was greater than 32 µg/mL and the MIC (Mucor spp.; CBS277, strain CBS 277.49) was greater than 39.2 µg/mL. The MIC (Mucor spp.; strain DI15-131, read-out: MIC UTHSC) was greater than 32 µg/mL, the “MIC UTHSC” value (Mucor spp.; strain Mucor1) was greater than 32 µg/mL and the “MIC UTHSC” value (Mucor spp.; strain Mucor2) was greater than 32 µg/mL.
